The molecules below were run against Adrenergic receptor alpha-2 (Rattus norvegicus) (UniProt P22086+P19328+P22909) (assay: Ratio of binding affinity towards Alpha-2 and alpha-1 adrenergic receptor).
Assay type: protein assay

Compound | Ratio
O=C(c1ccco1)N1CCN(c2ccc(=O)n(CCCCCCCN3CCN(c4ccccc4Cl)CC3)n2)CC1 | 4.2
COc1ccccc1OCCN1CCN(c2cnn(CCCCCCCCN3CCN(c4ccccc4Cl)CC3)c(=O)c2Cl)CC1 | 4
O=C(c1ccco1)N1CCN(c2cnn(CCCCN3CCN(c4ccccc4Cl)CC3)c(=O)c2Cl)CC1 | 14.7
O=C(c1ccco1)N1CCN(c2cnn(CCN3CCN(c4ccccc4Cl)CC3)c(=O)c2Cl)CC1 | 38.4
COc1ccccc1N1CCN(CCCCCn2nc(N3CCN(C(=O)c4ccco4)CC3)ccc2=O)CC1 | 5.8

Continued, values first:

Ratio | Compound
53 | COc1ccccc1OCCN1CCN(c2cnn(CCCCN3CCN(c4ccccc4OC)CC3)c(=O)c2Cl)CC1
3.8 | COc1ccccc1OCCN1CCN(c2cnn(CCCCCN3CCN(c4ccccc4OC)CC3)c(=O)c2Cl)CC1
11.6 | O=C(c1ccco1)N1CCN(c2cnn(CCCCCCN3CCN(c4ccccc4Cl)CC3)c(=O)c2Cl)CC1
9.3 | COc1ccccc1OCCN1CCN(c2ccc(=O)n(CCCCCCCN3CCN(c4ccccc4Cl)CC3)n2)CC1

What follows are molecules tested against T1, Adrenergic receptor alpha-1 (Rattus norvegicus, UniProt P15823+P23944+P43140) (assay: Binding affinity towards alpha-1 adrenergic receptor in rat cortex membrane using [3H]-prazosin radioligand).
T1 sequence (P15823 whole entry): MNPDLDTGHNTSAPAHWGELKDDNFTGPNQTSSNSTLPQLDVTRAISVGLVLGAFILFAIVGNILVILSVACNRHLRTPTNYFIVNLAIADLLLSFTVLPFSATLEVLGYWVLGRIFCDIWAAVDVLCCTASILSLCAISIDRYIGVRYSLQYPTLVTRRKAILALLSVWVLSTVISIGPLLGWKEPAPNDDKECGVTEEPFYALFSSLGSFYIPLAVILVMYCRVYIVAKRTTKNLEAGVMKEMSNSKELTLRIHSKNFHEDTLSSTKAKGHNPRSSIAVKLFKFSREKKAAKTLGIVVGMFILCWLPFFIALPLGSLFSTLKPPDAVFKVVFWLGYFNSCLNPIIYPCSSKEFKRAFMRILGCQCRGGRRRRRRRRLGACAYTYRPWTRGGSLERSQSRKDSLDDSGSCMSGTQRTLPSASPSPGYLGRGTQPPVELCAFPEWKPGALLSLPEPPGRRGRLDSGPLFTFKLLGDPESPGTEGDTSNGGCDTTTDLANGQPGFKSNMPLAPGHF
T1 sequence (P23944 whole entry): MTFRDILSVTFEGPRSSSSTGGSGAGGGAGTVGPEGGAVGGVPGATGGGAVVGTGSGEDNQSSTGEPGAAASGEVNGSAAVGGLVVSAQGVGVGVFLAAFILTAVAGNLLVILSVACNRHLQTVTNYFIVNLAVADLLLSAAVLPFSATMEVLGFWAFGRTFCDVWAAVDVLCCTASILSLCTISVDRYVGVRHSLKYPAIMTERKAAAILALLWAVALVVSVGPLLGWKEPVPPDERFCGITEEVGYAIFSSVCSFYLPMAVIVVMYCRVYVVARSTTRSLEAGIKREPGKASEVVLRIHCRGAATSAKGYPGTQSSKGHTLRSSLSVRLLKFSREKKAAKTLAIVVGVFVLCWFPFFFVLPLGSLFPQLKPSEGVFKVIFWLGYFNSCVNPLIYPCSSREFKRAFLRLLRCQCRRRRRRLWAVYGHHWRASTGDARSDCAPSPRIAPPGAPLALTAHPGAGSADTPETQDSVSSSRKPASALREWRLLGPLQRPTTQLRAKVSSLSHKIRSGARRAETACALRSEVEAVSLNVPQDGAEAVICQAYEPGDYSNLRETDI
T1 sequence (P43140 whole entry): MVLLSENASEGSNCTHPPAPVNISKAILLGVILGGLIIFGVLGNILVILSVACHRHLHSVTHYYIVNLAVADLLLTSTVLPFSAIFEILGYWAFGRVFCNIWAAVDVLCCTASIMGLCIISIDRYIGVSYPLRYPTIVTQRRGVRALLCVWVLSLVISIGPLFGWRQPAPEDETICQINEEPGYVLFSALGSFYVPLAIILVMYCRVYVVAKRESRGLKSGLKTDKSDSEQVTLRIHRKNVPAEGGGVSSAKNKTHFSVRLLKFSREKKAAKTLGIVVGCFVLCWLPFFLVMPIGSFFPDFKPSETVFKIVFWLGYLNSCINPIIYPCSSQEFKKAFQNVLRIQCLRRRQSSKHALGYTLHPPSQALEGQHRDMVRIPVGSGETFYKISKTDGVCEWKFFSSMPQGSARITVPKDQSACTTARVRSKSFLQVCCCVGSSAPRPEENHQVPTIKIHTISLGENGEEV
Assay type: cell membranes

Compound | Ki [nM]
COc1ccccc1N1CCN(Cn2nc(-c3ccccc3)c(C(C)=O)c(N)c2=O)CC1 | 2395
COc1ccccc1N1CCN(CCn2nc(-c3ccccc3)c3c(C)onc3c2=O)CC1 | 147
O=C(c1ccco1)N1CCN(c2ccc(=O)n(CCCCCCCN3CCN(c4ccccc4Cl)CC3)n2)CC1 | 5.6
COc1ccccc1OCCN1CCN(c2cnn(CCCCCCCCN3CCN(c4ccccc4Cl)CC3)c(=O)c2Cl)CC1 | 5.6
O=C(c1ccco1)N1CCN(c2cnn(CCCCN3CCN(c4ccccc4Cl)CC3)c(=O)c2Cl)CC1 | 19
O=C(c1ccco1)N1CCN(c2cnn(CCN3CCN(c4ccccc4Cl)CC3)c(=O)c2Cl)CC1 | 3.9
COc1ccccc1N1CCN(CCCCCn2nc(N3CCN(C(=O)c4ccco4)CC3)ccc2=O)CC1 | 43.7
COc1ccccc1N1CCN(CCCn2nc(-c3ccccc3)c(C(C)=O)c(N)c2=O)CC1 | 46.7
COc1ccccc1N1CCN(CCn2nc(N3CCN(C(=O)c4ccco4)CC3)ccc2=O)CC1 | 94.5
COc1ccc(Cl)cc1N1CCN(CCn2nc(-c3ccccc3)c3c(C)onc3c2=O)CC1 | 15.6

Further lines, results first:

Ki [nM] | Compound
42.7 | COc1ccc(Cl)cc1N1CCN(CCn2nc(-c3ccccc3)c(C(C)=O)c(N)c2=O)CC1
7.9 | COc1ccc(Cl)cc1N1CCN(CCCn2nc(-c3ccccc3)c3c(C)onc3c2=O)CC1
4.3 | COc1ccccc1OCCN1CCN(c2cnn(CCCCN3CCN(c4ccccc4OC)CC3)c(=O)c2Cl)CC1
3.9 | COc1ccccc1OCCN1CCN(c2cnn(CCCCCN3CCN(c4ccccc4OC)CC3)c(=O)c2Cl)CC1
5.7 | O=C(c1ccco1)N1CCN(c2cnn(CCCCCCN3CCN(c4ccccc4Cl)CC3)c(=O)c2Cl)CC1
2308 | COc1ccccc1N1CCN(Cn2nc(-c3ccccc3)c3c(C)onc3c2=O)CC1
15 | COc1ccccc1OCCN1CCN(c2ccc(=O)n(CCCCCCCN3CCN(c4ccccc4Cl)CC3)n2)CC1
516 | COc1ccccc1N1CCN(CC(=O)c2c(-c3ccccc3)nn(C)c(=O)c2N)CC1

What follows are molecules tested against T2, Adrenergic receptor alpha-2 (Rattus norvegicus, UniProt P22086+P19328+P22909) (assay: Binding affinity towards alpha-2 adrenergic receptor in rat cortex membrane using [3H]rauwolscine radioligand).
T2 sequence (P22086 whole entry): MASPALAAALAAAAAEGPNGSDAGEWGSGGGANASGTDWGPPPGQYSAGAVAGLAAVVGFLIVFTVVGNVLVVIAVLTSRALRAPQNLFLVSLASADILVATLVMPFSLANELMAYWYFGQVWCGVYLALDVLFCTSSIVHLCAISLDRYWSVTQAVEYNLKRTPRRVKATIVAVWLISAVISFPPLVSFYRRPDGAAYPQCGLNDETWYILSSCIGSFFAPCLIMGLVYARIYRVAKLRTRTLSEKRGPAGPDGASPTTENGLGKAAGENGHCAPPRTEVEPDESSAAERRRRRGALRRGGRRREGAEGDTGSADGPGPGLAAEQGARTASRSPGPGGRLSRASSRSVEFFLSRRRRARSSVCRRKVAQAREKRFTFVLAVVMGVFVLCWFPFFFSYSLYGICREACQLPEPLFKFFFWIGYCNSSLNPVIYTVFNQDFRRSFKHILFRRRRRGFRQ
T2 sequence (P19328 whole entry): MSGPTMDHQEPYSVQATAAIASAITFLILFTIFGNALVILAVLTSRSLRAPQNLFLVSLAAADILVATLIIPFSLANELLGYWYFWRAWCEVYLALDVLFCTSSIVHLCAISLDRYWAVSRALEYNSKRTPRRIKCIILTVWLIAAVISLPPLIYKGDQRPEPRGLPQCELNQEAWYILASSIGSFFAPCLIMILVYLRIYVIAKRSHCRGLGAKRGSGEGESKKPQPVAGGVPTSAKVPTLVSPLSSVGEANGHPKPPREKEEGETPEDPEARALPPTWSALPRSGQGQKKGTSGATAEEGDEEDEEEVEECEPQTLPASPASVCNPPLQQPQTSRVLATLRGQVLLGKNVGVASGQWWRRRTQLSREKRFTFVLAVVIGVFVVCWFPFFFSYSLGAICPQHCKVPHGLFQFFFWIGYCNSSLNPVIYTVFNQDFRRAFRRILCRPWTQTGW
T2 sequence (P22909 whole entry): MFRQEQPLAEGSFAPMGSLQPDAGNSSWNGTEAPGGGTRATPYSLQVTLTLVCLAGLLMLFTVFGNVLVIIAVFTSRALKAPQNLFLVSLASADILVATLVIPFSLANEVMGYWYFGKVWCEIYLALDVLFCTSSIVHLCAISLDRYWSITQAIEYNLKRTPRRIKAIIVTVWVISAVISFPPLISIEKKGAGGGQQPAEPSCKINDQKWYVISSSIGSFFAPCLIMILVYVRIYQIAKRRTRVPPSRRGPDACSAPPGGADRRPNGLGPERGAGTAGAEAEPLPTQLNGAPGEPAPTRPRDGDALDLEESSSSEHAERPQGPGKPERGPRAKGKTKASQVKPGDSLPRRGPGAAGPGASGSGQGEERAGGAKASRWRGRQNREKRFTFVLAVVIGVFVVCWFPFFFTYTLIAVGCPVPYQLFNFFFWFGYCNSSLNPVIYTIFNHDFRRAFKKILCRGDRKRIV
Assay type: cell membranes

Compound | Ki [nM]
O=C(c1ccco1)N1CCN(c2ccc(=O)n(CCCCCCCN3CCN(c4ccccc4Cl)CC3)n2)CC1 | 23.5
COc1ccccc1OCCN1CCN(c2cnn(CCCCCCCCN3CCN(c4ccccc4Cl)CC3)c(=O)c2Cl)CC1 | 22.8
O=C(c1ccco1)N1CCN(c2cnn(CCCCN3CCN(c4ccccc4Cl)CC3)c(=O)c2Cl)CC1 | 280
O=C(c1ccco1)N1CCN(c2cnn(CCN3CCN(c4ccccc4Cl)CC3)c(=O)c2Cl)CC1 | 150
COc1ccccc1N1CCN(CCCCCn2nc(N3CCN(C(=O)c4ccco4)CC3)ccc2=O)CC1 | 255

Next, values leading:

Ki [nM] | Compound
230 | COc1ccccc1OCCN1CCN(c2cnn(CCCCN3CCN(c4ccccc4OC)CC3)c(=O)c2Cl)CC1
15 | COc1ccccc1OCCN1CCN(c2cnn(CCCCCN3CCN(c4ccccc4OC)CC3)c(=O)c2Cl)CC1
66 | O=C(c1ccco1)N1CCN(c2cnn(CCCCCCN3CCN(c4ccccc4Cl)CC3)c(=O)c2Cl)CC1
139 | COc1ccccc1OCCN1CCN(c2ccc(=O)n(CCCCCCCN3CCN(c4ccccc4Cl)CC3)n2)CC1

Source: ChEMBL document CHEMBL1134688, “Synthesis, biological evaluation, and pharmacophore generation of new pyridazinone derivatives with affinity toward alpha(1)- and alpha(2)-adrenoceptors” (J Med Chem, 2001)
